Legend:
Format in all cases: cell-based, human
[1] = system: isolated whole sweat glands; test: Time-lapse imaging of stained isolated whole sweat glands held with collagen in PBS: moving distance of cells after stimulant; settings: pilocarpine 10 mM added 60 seconds after initiation of observation, when 150 to 300 seconds passed from initiation, FIG. 5
Method: As skin tissues, skin tissues which were refrigerated immediately after removal from living donors and stored at 4° C. for 15 hours were used. The skin tissues were immersed in a phosphate-buffered saline containing 10 μM Neutral Red, to incorporate Neutral Red into sweat glands included in the skin tissues. Next, the dermis of each of the skin tissues was finely cut to obtain dermal segments. Whole sweat glands were collected from the dermal segments by using tweezers under an optical microscope. […]
After 5 minutes passed from the addition of the buffer, the observation with the time-lapse imaging of the whole sweat glands on the glass bottom dish was started by using a confocal laser scanning microscope for biological use (inverted microscope (manufactured by Olympus Corporation, trade name: IX-83) equipped with FV 1200 manufactured by Olympus Corporation)). At that time, the whole sweat glands were visualized by detecting fluorescence derived from the nuclear staining reagent bound to the nucleus and fluorescence derived from the cytoskeleton-staining reagent bound to the cytoskeleton. […]
wherein n is the same as mentioned above. […] The actual moving distance (μm) of the cell was calculated by multiplying the movement value by the size per coordinate 1.

[2] = system: isolated whole sweat glands; test: Time-lapse imaging of whole sweat glands in Krebs-Ringer solution: outer and inner diameter index values of sweat gland tubule after stimulant; settings: pilocarpine 10 mM added after 10 minutes
Method: Whole sweat glands were observed by time-lapse imaging in the same manner as in Example 1 except that Krebs-Ringer solution (composition: 125 mM sodium chloride, 5 mM potassium chloride, 1 mM calcium chloride, 1. 2 mM magnesium chloride, 25 mM sodium bicarbonate, 1.2 mM dihydrogen phosphate sodium, 5 mM glucose and 10 mg/100 mL of fatty acid-free bovine serum albumin, pH 7.48) was used in place of PBS. After 10 minutes passed from the initiation of the observation, pilocarpine which was a sweat gland contraction-inducing reagent (stimulant) was added to the whole sweat glands so as to have a concentration of 10 mM, and thereafter the observation of the whole sweat glands using the time-lapse imaging was continued. Next, changes of each outer diameter index values at the determined sites (A) to (C) shown in FIG. 17 with the passage of time were obtained by using the image analysis software (manufactured by BITPLANE, trade name: Imaris). The outer diameter index value was obtained by stacking data in the Z direction and performing calculation in which the image analysis software was used in the “Surface” mode under the following setting conditions: In FIG. 17, the determined site (A) is a portion enveloped by myoepithelial cells. The determined site (B) and the determined site (C) are portions which are not enveloped by myoepithelial cells, and which are flow pathways for sweat. Further, the scale bar in FIG. 17 means 50 μm. After cancelling the stacking of the data in the Z direction, changes of an inner diameter index value at the determined sites (A) to (C) shown in FIG. 18 were calculated with one kind of data in the Z direction. The internal diameter index value was obtained by preparing the surface model, then extracting the components included in the surface model with Mask tool included in an image analysis software and performing calculation with the image analysis software under the following setting conditions: […]

[3] = system: isolated whole sweat glands; test: Evaluation of test substance for perspiration-controlling action: moving distance of cells in whole sweat glands stimulated with pilocarpine; settings: atropine pre-incubated 30 minutes, pilocarpine 10 mM after 10 minutes
Method: Whole sweat glands were observed by time-lapse imaging in the same manner as in Example 1 except that Krebs-Ringer solution was used in place of PBS, that atropine as a test substance was added onto the whole sweat glands before observing the whole sweat glands by using time-lapse imaging and thereafter the whole sweat glands were incubated for 30 minutes, and that pilocarpine was added onto the whole sweat glands so as to have a concentration of 10 mM after 10 minutes passed from the initiation of the observation (Experiment No. 1). Next, cells E, F, G, H and I were selected from the image of FIG. 21, and a moving distance of each cell was examined in the same manner as in Example 1. Next, the average value of moving distances of cells was obtained by using the moving distance of each cell. The scale bar in FIG. 21 means 50 μm.
In addition, whole sweat glands were observed by time-lapse imaging in the same manner as in Example 1 except that Krebs-Ringer's solution was used in place of PBS and that pilocarpine was added onto the whole sweat glands so as to have a concentration of 10 mM after 10 minutes passed from the initiation of the observation (Experiment No. 2). Next, cells J, K, L, M and N were selected from the image of FIG. 22, and a moving distance of each cell was examined in the same manner as in Example 1. […]

[4] = site not enveloped by myoepithelial cells, FIG. 19
[5] = site not enveloped by myoepithelial cells, FIG. 20

Structure (SMILES)	moving distances of the cell A, the cell B, the cell C, and the cell D [1]	outer diameter index value at the determined site (A) ([2]; site enveloped by myoepithelial cells, FIG. 19)	inner diameter index value at the determined site (A) ([2]; site enveloped by myoepithelial cells, FIG. 20)	outer diameter index value at the determined site (B) [2, 4]	outer diameter index value at the determined site (C) [2, 4]	diameter index value at the determined site (B), results of FIG. 20 [2, 5]	diameter index value at the determined site (C), results of FIG. 20 [2, 5]	perspiration-controlling action judged from sweat gland dynamics [3]	changes of a moving distance of each cell included in the sweat glands with the passage of time, compared with sweat glands not contacted with atropine ([3]; Krebs-Ringer solution, FIG. 23 vs FIG. 24)
CC[C@@H]1C(=O)OC[C@@H]1Cc1cncn1C [pilocarpine]	become larger	decreases after stimulating with the stimulant and then increases	greatly decreases after stimulating with the stimulant and then increases	increases after stimulating with the stimulant	hardly changes after stimulating with the stimulant	hardly changes immediately after stimulating with the stimulant, but the outer diameter index value increases when passing a certain time	hardly changes immediately after stimulating with the stimulant, but the outer diameter index value increases when passing a certain time	–	–
CN1[C@@H]2CC[C@H]1C[C@@H](OC(=O)C(CO)c1ccccc1)C2 (stereo partly drawn) [atropine]	–	–	–	–	–	–	–	has an antiperspirant action	smaller

— patent US20190049429A1, “METHOD FOR OBSERVING DYNAMICS OF SWEAT GLANDS” (MANDOM CORPORATION, priority 2016, published 2019)
